# Test results taken from a melting point compilation (Tetko et al.; mined from patent text by program, amines drawn as free bases though some values may be those of a salt).
row,Structure (SMILES),melting point
1,O=C(O)CCC(=O)Nc1ccc2[nH]c(=O)c3ccccc3c2c1,224 to 228 °C
2,COCC(C)Oc1ccc2c(c1)c(-c1cc3cccnc3[nH]1)cn2C (stereo unspecified),150 to 151 °C
3,CS(=O)(=O)c1ccc(-c2[nH]nc(C(=O)CCCO[N+](=O)[O-])c2-c2ccc(C#N)cc2)cc1,148 to 149 °C
4,O=S(=O)(Nc1cccc(Cl)c1F)c1cc(S(=O)(=O)Nc2cccc(Cl)c2F)c2cc(O)ccc2c1,126 to 128 °C
5,COc1cccc(C(=O)Nc2ccc(N3CCCC3)cc2C(C)=O)c1OC,137 to 140 °C
6,Cn1c(Cl)cnc1C#N,87 to 89 °C
7,CCCn1nc(C(C)C)c(C(=O)OCc2ccccc2C(=O)c2ccccc2)c1Cc1ccc(-c2ccccc2S(N)(=O)=O)c(F)c1,49 to 51 °C
8,CCCCCCCCCCCCCC(c1ccccc1)S(=O)(=O)NC(=O)Nc1c(C(C)C)cccc1C(C)C (stereo unspecified),97 to 102 °C
9,CC(=O)Nc1ccc(S(=O)(=O)Nc2nnc(S(N)(=O)=O)s2)cc1,280 to 281 °C
10,CC(=O)Nc1cccc(NC(=O)C=C(C)C)c1,144 to 148 °C
11,C=CCNC(=O)C=Cc1cn(C)nc1[N+](=O)[O-],143 to 146 °C
12,CCCOc1ccc([N+](=O)[O-])cc1[N+](=O)[O-],84 to 86 °C
13,N#Cc1ccc([C@H]2CC[C@H](CCC=O)CC2)cc1,30 °C
14,COc1ccc(C2(C#N)CC2)cc1OC1CCCC1,80.4 °C
15,COCc1c(O)ccc2c1CCCC2=O,142 to 143 °C
16,COC(=O)Oc1ccc(F)cc1Br,75 to 78 °C
17,NC(=O)c1[nH]cnc1OC(=O)C=Cc1ccc(C=O)cc1,233 °C
18,CCCCN1CCC(n2c(=O)[nH]c3ccccc32)CC1,207 to 209 °C
19,CCCCC(C(=O)OCC)S(=O)(=O)c1ccc(OC)cc1 (stereo unspecified),62 °C
20,Cc1ccc(S(=O)(=O)NC(=O)c2nc(Cl)c(Cl)[nH]2)cc1,238 °C
21,CCc1c(Cc2ccccc2)c2ccc(OC)cc2n1CC(=O)NN,164 to 166 °C
22,CCOC(=O)c1ccccc1C=C(C)C=CC=C(C)CCC=C(C)C,47 to 48 °C
23,CCCCCCOc1cc(C(=O)O)cc(N)c1C(=O)c1ccccc1,168 °C
24,O=C(O)C=Cc1ccc(C=CC(=O)O)c2ccccc12,350 to 355 °C

# Continued, values first:
row,melting point,Structure (SMILES)
1,101 to 103 °C,COc1ccc(C(=O)CCC2CCN(C(C)=O)CC2)cc1N
2,163 to 164 °C,CCOC(=O)Cc1c(Br)cnc2c([N+](=O)[O-])cccc12
3,119 to 121 °C,C[C@H](O)Cc1ncc[nH]1
4,82 °C,COc1cc(CN2CCN(C(=S)C3(C)CCc4c(C)c(O)c(C)c(C)c4O3)CC2)cc(OC)c1OC (stereo unspecified)
5,158 °C,COc1cccc2c1CCc1nc(-c3ccncc3)oc1-2
6,196 to 198 °C,CCCNC(=O)c1c(OCc2ccc(-c3ccccc3-c3nnn[nH]3)cc2)cc(C)nc1C
7,212 to 217 °C,CCn1cc(C(=O)O)c(=O)c2cc(F)c(N3CCC(C(C)N)C3)c(F)c21 (stereo unspecified)
8,125 to 127 °C,Cc1nccn1-c1ccc(OCCO)cc1
9,129 °C,COc1cc(NC(=O)OC(C)(C)C)c([N+](=O)[O-])cc1C#Cc1ccccc1
10,194 to 196 °C,C[C@@H]1CN(C(=O)[C@@](C)(O)C(F)(F)F)[C@@H](C)CN1S(=O)(=O)c1ccc(C(=O)O)cc1
11,81 to 82 °C,N#CN1CCc2cccc(Cl)c2CC1
12,156 to 159 °C,CSc1ncc2cc(Cc3ccccc3F)c(=O)n(C)c2n1
13,148 to 149 °C,COc1ccc(N2CCN(c3c(C)c(C)c4c(c3C)C(O)(c3ccoc3)C(C)(C)O4)CC2)cc1 (stereo unspecified)
14,83 to 87 °C,CCOC(=O)c1ccsc1NC(=O)NC
15,104 to 105 °C,CC(C)c1cc2ncsc2cc1SC1=C(O)CC(CCc2ccc(F)cc2)(C(C)C)OC1=O (stereo unspecified)
16,153 to 155 °C,NS(=O)(=O)c1ccc(-n2nc(C(F)(F)F)cc2-c2ccc(Cl)cc2Cl)cc1
17,115 to 117 °C,O=C1CC2Sc3nc4ccccc4n3C2(c2ccc(Cl)cc2)O1 (stereo unspecified)
